Reference: publication PMC10496123, “Potent Antifungal Activity of Penta-O-galloyl-β-D-Glucose against Drug-Resistant Candida albicans, Candida auris, and Other Non-albicans Candida Species” (ACS Infectious Diseases, 2023)
Values after ≈ are worked out from the molar mass of the structure shown. “Also recorded” adds a separate entry of the source.

Legend:
Candida glabrata = assay: Growth inhibition by CLSI microbroth dilution; format: cell-based; conditions: for IC50 / MIC: Nakaseomyces glabratus, 48 h; for IC50: >50% growth inhibition; for MIC: >90% growth inhibition
[1] = test system: Staphylococcus aureus (various strains); set-up: method as in doi:10.1016/j.foodchem.2010.04.072; conditions: antibacterial; possibly iron chelation; cited from earlier work
HT-29 cells = test system: HT-29 cells; set-up: method as in PMID 27196315, PMID 29778287; conditions: inhibition of proliferation; cited from earlier work
Candida parapsilosis = assay: Growth inhibition by CLSI microbroth dilution; format: cell-based; conditions: for IC50 / MIC: 48 h; for IC50: >50% growth inhibition; for MIC: >90% growth inhibition
C. albicans 90028 [2] = assay: Iron supplementation growth inhibition assay; format: cell-based, Candida albicans; conditions: 10 mM iron (II) or iron (III); PGG 4–16 μg mL^–1; 48 h
Description: For iron supplementation assays, growth inhibition assays were performed by microbroth dilution following the guidelines set by the CLSI.[58] A solution of iron (II) sulfate and iron (III) sulfate (VWR) was dissolved in deionized water to a concentration of 10 mM and added to treated wells at the beginning of incubation. Growth inhibition was measured after 48 h. Percent growth inhibition was determined by comparing treatments to vehicle controls. Iron supplementation experiments were repeated in duplicate with three technical replicates per treatment and on different days.

HCT-116 cells = test system: HCT-116 cells; set-up: method as in PMID 27196315, PMID 29778287; conditions: inhibition of proliferation; cited from earlier work
C. albicans 90028 [3] = assay: Media supplementation (Mg, Ca, Mn, Zn) growth inhibition assay; format: cell-based, Candida albicans
Description: For media supplementation experiments, magnesium sulfate (Alfa Aesar), manganese sulfate, zinc sulfate, and calcium chloride (Ward Science) were dissolved in RPMI-1640 media and, after 24 h, added at a final concentration of 1 mM. Growth inhibition was measured 24 h after media supplementation. Percent growth inhibition was determined by comparing treatments to vehicle controls. Media supplementation experiments were repeated in triplicate with four technical replicates per treatment and on different days. page 6: Figure S5. Effect of supplemental cations on growth inhibition of penta-O-galloyl- β-D-glucose against C. albicans. C. albicans.90028 was treated with PGG alone and in combination with 1 mM magnesium (Mg2+) or 1 mM calcium (Ca2+). The data are plotted as mean % growth inhibition ± SD as compared to vehicle controls from two independent experiments. Dotted line represents 90% growth inhibition. S6 (1 picture or pasted object on this page, not shown here) page 7: Figure S6. Effect of supplemental metal ions on growth inhibition of penta-O- galloyl-β-D-glucose against C. albicans. C. albicans 90028 was treated with PGG alone and in combination with 1 mM manganese (Mn2+) or 1 mM zinc (Zn2+). The data are plotted as mean % growth inhibition ± SD as compared to vehicle controls from two independent experiments . Dotted line represents 90% growth inhibition . Statistical analysis was done using 2 -way ANOVA with multiple comparisons. The symbol (*) […] S7 (1 picture or pasted object on this page, not shown here)

mice = conditions: 20 mg/kg/day orally in mice; cited from earlier work
[4] = test system: drug-sensitive C. albicans; assay: Growth inhibition in fungal growth media with 10% FBS; format: cell-based, Candida albicans; conditions: 10% fetal bovine serum; concentrations up to 512 μg mL^–1; data not shown
SK-HEP-1 cells = test system: SK-HEP-1 cells; set-up: method as in PMID 11675148; conditions: inhibition of proliferation; cited from earlier work
[5] = LDH chemical-induced cytotoxicity; format: cell-based
Description: Hek293 cells were purchased from BEI Resources. HaCaT cells were purchased from ATCC. HepG2 cells were provided by Dr. Edward Morgan (Emory University). Mammalian cell cultures were maintained in Dulbecco’s modified Eagle’s medium with L-glutamine and 4.5 g L^–1 glucose (Corning) supplemented with 10% fetal bovine serum (Avantor) and a 100× combination solution of 10,000 IU mL^–1 penicillin and 10,000 μg mL^–1 streptomycin (Corning) at 37 °C, 5% CO2. Mammalian cultures at 70–80% confluency were used for cell viability and cytotoxicity experiments.
The mammalian culture was standardized to 4 × 10^3 cells per 100 μL. Cells were allowed to attach and incubate for 24 h before growth media was replaced with treatment media (PGG, 16–512 μg mL^–1) or an equivalent volume of the DMSO vehicle, followed by incubation for 24 h. Plates were then evaluated with an LDH cytotoxicity assay (G Biosciences) and processed according to the manufacturer’s protocol for chemical-induced cytotoxicity. Experiments were repeated in triplicate with three technical replicates per treatment and on different days.

[6] = test system: C. albicans wild type (SN95, SN152) and ire1Δ/Δ, hap43Δ/Δ, rim101Δ/Δ; assay: microbe, parasite or virus in culture; format: cell-based, Candida albicans; conditions: for MIC90: Candida albicans, 48 h, 30 °C
C. albicans = assay: Ergosterol binding assay (growth inhibition with exogenous ergosterol); format: cell-based, Candida albicans; conditions: 80 μg mL^–1 exogenous ergosterol, 1×–4× MIC, 24 h
Description: Ergosterol binding was measured using a previously described method,[60] with some modifications. Briefly, ergosterol (TCI) was pulverized with a sterile pestle and mortar and then dissolved in 100% ethanol. The resultant emulsion was warmed at 37 °C for 15 min and then sonicated for 45 min prior to use. […] The negative control was untreated culture. A media blank was used to monitor for contamination. Experiments were repeated in triplicate with three technical replicates per treatment and on different days. page 5: Figure S4. Growth inhibition of penta-O-galloyl-β-D-glucose against C. albicans not affected by additional ergosterol. C. albicans was treated with PGG or […] mL-1). After 24 hours, treatment groups were measured for growth inhibition. The data are plotted as mean % growth inhibition ± SD as compared to vehicle controls from three independent experiments . Dotted line represents 90% growth inhibition . S5 (1 picture or pasted object on this page, not shown here)

O=C(OC[C@H]1O[C@@H](OC(=O)c2cc(O)c(O)c(O)c2)[C@H](OC(=O)c2cc(O)c(O)c(O)c2)[C@@H](OC(=O)c2cc(O)c(O)c(O)c2)[C@@H]1OC(=O)c1cc(O)c(O)c(O)c1)c1cc(O)c(O)c(O)c1 [PGG, penta-O-galloyl-β-D-glucose] gave an IC50 (Candida glabrata; strain AR Bank #0325) of 0.25 µg/mL (≈ 0.266 µM), an MIC (Candida glabrata; strain AR Bank #0325) of 0.5 µg/mL (≈ 0.532 µM) and an IC50 (Candida glabrata; strain AR Bank #0326) of 0.125 µg/mL (≈ 0.133 µM). The MIC (Candida glabrata; strain AR Bank #0326) was 0.25 µg/mL (≈ 0.266 µM), the “MIC (range over strains)” value (Candida glabrata; two strains of C. glabrata) was 0.25 to 0.5 μg mL^–1 and the IC50/EC50 [1] was 16 to 32 µg/mL. For the same compound, the IC50/EC50 (HT-29 cells) was 4.46 µM, the IC50 (Candida parapsilosis; strain AR Bank #0335) was 1 µg/mL (≈ 1.06 µM) and the MIC (Candida parapsilosis; strain AR Bank #0335) was 4 µg/mL (≈ 4.25 µM). It also gave an IC50 (Candida parapsilosis; strain AR Bank #0337) of 0.5 µg/mL (≈ 0.532 µM), an MIC (Candida parapsilosis; strain AR Bank #0337) of 0.5 µg/mL (≈ 0.532 µM) and an IC50 (Candida parapsilosis; strain AR Bank #0338) of 0.25 µg/mL (≈ 0.266 µM). The MIC (Candida parapsilosis; strain AR Bank #0338) was 0.5 µg/mL (≈ 0.532 µM), the IC50 (Candida parapsilosis; strain AR Bank #0339) was 0.5 µg/mL (≈ 0.532 µM) and the MIC (Candida parapsilosis; strain AR Bank #0339) was 1 µg/mL (≈ 1.06 µM). The “MIC (range over strains)” value (Candida parapsilosis; four strains of C. parapsilosis) was 0.5 to 4.0 μg mL^–1, the “Reduction of the growth inhibitory activity on iron supplementation” value (C. albicans 90028 [2]) was 80–100% and the IC50/EC50 (HCT-116 cells) was 1.61 µM. The “Effect of cation treatment (calcium, magnesium) on growth inhibition” value (C. albicans 90028 [3]; 1 mM Mg2+ or Ca2+) was “no significant effect”, the “Effect of manganese supplementation on growth inhibition” value (C. albicans 90028 [3]; 1 mM Mn2+, at 0.5× MIC of PGG) was “minor effect” and the “Effect of zinc supplementation on growth inhibition” value (C. albicans 90028 [3]; 1 mM Zn2+) was “no effect”. For the same compound, the Tolerability (mice) was “tolerated without ill effects”, the “Growth inhibition in serum-supplemented medium” value [4] was “loss of growth inhibition” and the IC50/EC50 (SK-HEP-1 cells) was 25 to 50 µM. It also gave a CC50 at 24 h ([5]; HaCaT cells (keratinocytes), HaCaT (human keratinocytes)) greater than 272 µM, a CC50 at 24 h ([5]; HaCaT cells (keratinocytes), HaCaT (human keratinocytes), serum-supplemented medium) greater than 256 µg/mL and a CC50 at 24 h ([5]; Hek293 cells (kidney), Hek293 (human kidney)) greater than 272 µM. The CC50 at 24 h ([5]; Hek293 cells (kidney), Hek293 (human kidney), serum-supplemented medium) was greater than 256 µg/mL, the CC50 at 24 h ([5]; HepG2 cells (liver), HepG2 (human liver)) was greater than 272 µM and the CC50 at 24 h ([5]; HepG2 cells (liver), HepG2 (human liver), serum-supplemented medium) was greater than 256 µg/mL. It also gave an MIC90 ([6]; Wild type (SN95)) greater than 20 µg/mL, an MIC90 ([6]; Wild type (SN152)) greater than 20 µg/mL and an MIC90 ([6]; hap43Δ/Δ) of 0.625 µg/mL (≈ 0.664 µM). For the same compound, the MIC90 ([6]; ire1Δ/Δ) was 0.625 µg/mL (≈ 0.664 µM), the MIC90 ([6]; rim101Δ/Δ) was 0.625 µg/mL (≈ 0.664 µM) and the “Effect of deletion of IRE1, HAP43 and RIM101 on sensitivity” value ([6]; mutants versus wild type) was “hypersensitive; also recorded: hypersensitivity”. The “Growth inhibitory activity with additional ergosterol” value (C. albicans) was “not affected”.
